Assay results reported in patent US12539292B2, “BRM targeting compounds and associated methods of use” (Arvinas Operations, Inc., priority 2018, dated 2026).

Molecular target: T1, BRM (Homo sapiens, UniProt P51531)
T1 construct: In-Cell Western Screen of BRM Degradation in SW1573 Cells; endogenous in cells; host or cells: SW1573
Assay: In-cell Western screen of BRM degradation in SW1573 cells (Dmax and DC50)
Format: cell-based
Conditions: for DC50: BRM degradation, read-out: BRM DC50; for Dmax: SW1573, read-out: BRM Dmax (%); for Dmax / BRM Dmax (%): % degraded, when tested at the top concentration of between 0.3 and 10 μM
Method in brief: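 After adhering overnight, cells received compound for 18-20 hours. They were then washed in cold DPBS, fixed with 4% PFA for 20 min and permeabilized for 30 min. Blocking and fluorescent secondary staining followed before imaging.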

T1 sequence (P51531 whole entry): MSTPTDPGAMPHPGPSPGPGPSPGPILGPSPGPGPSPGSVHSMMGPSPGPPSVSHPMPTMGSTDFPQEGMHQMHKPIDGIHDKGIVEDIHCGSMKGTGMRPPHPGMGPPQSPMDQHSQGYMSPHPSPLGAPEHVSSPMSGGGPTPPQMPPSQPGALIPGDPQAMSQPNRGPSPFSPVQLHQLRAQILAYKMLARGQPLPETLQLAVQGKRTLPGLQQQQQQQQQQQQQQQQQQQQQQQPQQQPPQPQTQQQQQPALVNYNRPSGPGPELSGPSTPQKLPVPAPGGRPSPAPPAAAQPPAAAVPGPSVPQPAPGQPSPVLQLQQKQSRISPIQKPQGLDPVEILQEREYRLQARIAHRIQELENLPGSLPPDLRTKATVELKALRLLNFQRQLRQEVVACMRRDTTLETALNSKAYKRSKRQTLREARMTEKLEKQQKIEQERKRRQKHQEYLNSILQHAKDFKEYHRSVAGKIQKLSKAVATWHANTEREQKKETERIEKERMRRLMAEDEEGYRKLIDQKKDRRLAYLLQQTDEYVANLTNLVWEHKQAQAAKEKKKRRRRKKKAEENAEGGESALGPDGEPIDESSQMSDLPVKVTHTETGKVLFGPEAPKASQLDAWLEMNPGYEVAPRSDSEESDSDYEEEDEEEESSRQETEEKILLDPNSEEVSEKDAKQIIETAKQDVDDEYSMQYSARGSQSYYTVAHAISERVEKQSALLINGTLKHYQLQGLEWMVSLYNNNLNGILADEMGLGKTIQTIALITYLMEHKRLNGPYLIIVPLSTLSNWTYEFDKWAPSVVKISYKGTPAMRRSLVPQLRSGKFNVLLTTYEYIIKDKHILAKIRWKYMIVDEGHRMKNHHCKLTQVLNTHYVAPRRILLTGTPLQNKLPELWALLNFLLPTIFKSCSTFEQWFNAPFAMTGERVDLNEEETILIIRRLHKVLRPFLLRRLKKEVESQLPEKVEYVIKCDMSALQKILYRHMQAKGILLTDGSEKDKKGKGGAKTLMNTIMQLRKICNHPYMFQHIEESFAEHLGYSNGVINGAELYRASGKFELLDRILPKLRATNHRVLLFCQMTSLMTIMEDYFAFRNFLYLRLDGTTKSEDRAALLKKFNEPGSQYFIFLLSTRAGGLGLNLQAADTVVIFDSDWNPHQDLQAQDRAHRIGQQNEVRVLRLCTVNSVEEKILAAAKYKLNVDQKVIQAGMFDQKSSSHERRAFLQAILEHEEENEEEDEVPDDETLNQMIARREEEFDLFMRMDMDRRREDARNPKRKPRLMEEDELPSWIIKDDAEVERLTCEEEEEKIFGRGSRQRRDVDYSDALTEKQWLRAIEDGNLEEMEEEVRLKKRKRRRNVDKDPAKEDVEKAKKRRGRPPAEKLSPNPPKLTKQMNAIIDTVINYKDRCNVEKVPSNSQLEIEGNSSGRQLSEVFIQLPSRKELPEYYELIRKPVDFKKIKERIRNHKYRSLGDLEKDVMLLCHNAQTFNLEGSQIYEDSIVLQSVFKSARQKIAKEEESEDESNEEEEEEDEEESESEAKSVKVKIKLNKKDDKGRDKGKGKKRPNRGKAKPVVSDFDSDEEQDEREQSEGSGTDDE

Row | SMILES | DC50 | Dmax | BRM Dmax (%)
1 | Cc1ncsc1-c1ccc([C@H](C)NC(=O)[C@@H]2C[C@@H](O)CN2C(=O)[C@@H](c2cc(OCCN(C(C)C)[C@H]3CC[C@H](O[C@H]4C[C@H](Oc5cc(N6C7CCC6CN(c6cc(-c8ccccc8O)nnc6N)C7)ccn5)C4)CC3)no2)C(C)C)cn1 [compound 505, (2S,4R)-1-((2R)-2-(3-(2-(((1R,4R)-4-((1r,3R)-3-((4-(3-(3-amino-6-(2-hydroxyphenyl)pyridazin-4-yl)-3,8-diazabicyclo[3.2.1]octan-8-yl)pyridin-2-yl)oxy)cyclobutoxy)cyclohexyl)(isopropyl)amin 0)ethoxy)isoxazol-5-yl)-3-methylbutanoyl)-4-hydroxy-N-((S)-1-(6-(4-methylthiazol-5-yl)pyridin-3-yl)ethyl)pyrrolidine-2-carboxamide] | 0.0025 to 0.01 µM | > 75% | 
2 | Cc1ncsc1-c1ccc([C@H](C)NC(=O)[C@@H]2C[C@@H](O)CN2C(=O)[C@@H](c2cc(OCCN3CCC(O[C@H]4C[C@H](Oc5cc(N6C7CCC6CN(c6cc(-c8ccccc8OP(=O)(O)O)nnc6N)C7)ccn5)C4)CC3)no2)C(C)C)cc1 [compound 506, 2-(6-amino-5-(8-(2-((1R,3r)-3-((1-(2-((5-((R)-1-((2S,4R)-4-hydroxy-2-(((S)-1-(4-(4-methylthiazol-5-yl)phenyl)ethyl)carbamoyl)pyrrolidin-1-yl)-3-methyl-1-oxobutan-2-yl)isoxazol-3-yl)oxy)ethyl)piperidin-4-yl)oxy)cyclobutoxy)pyridin-4-yl)-3,8-diazabicyclo[3.2.1]octan-3-yl)pyridazin-3-yl)phenyl dihydrogen phosphate] | < 0.0025 µM | > 75% | 
3 | Cc1ncsc1-c1ccc([C@H](C)NC(=O)[C@@H]2C[C@@H](O)CN2C(=O)[C@@H](c2cc(OCCN3CCN(CCOc4cc(N5C6CCC5CN(c5cc(-c7ccccc7O)nnc5N)C6)ccn4)C[C@@H]3C)no2)C(C)C)cn1 [compound 509, (2S,4R)-1-((2R)-2-(3-(2-((2S)-4-(2-((4-(3-(3-amino-6-(2-hydroxyphenyl)pyridazin-4-yl)-3,8-diazabicyclo[3.2.1]octan-8-yl)pyridin-2-yl)oxy)ethyl)-2-methylpiperazin-1-yl)ethoxy)isoxazol-5-yl)-3-methylbutanoyl)-4-hydroxy-N-((S)-1-(6-(4-methylthiazol-5-yl)pyridin-3-yl)ethyl)pyrrolidine-2-carboxamide] | < 0.0025 µM | > 75% | 
4 | Cc1ncsc1-c1ccc([C@H](C)NC(=O)[C@@H]2C[C@@H](O)CN2C(=O)[C@H](c2cc(OCCC3CCN(CCOc4cc(N5C6CCC5CN(c5cc(-c7ccccc7O)nnc5N)C6)ccn4)CC3)no2)C(C)C)cc1 [compound 510, (2S,4R)-1-((2S)-2-(3-(2-(1-(2-((4-(3-(3-amino-6-(2-hydroxyphenyl)pyridazin-4-yl)-3,8-diazabicyclo[3.2.1]octan-8-yl)pyridin-2-yl)oxy)ethyl)piperidin-4-yl)ethoxy)isoxazol-5-yl)-3-methylbutanoyl)-4-hydroxy-N-((S)-1-(4-(4-methylthiazol-5-yl)phenyl)ethyl)pyrrolidine-2-carboxamide] | < 0.0025 µM | > 75% | 
5 | Cc1ncsc1-c1ccc([C@H](C)NC(=O)[C@@H]2C[C@@H](O)CN2C(=O)[C@@H](c2cc(OCCC3CCN(CCOc4cc(N5C6CCC5CN(c5cc(-c7ccccc7O)nnc5N)C6)ccn4)CC3)no2)C(C)C)cc1 [compound 511, (2S,4R)-1-((2R)-2-(3-(2-(1-(2-((4-(3-(3-amino-6-(2-hydroxyphenyl)pyridazin-4-yl)-3,8-diazabicyclo[3.2.1]octan-8-yl)pyridin-2-yl)oxy)ethyl)piperidin-4-yl)ethoxy)isoxazol-5-yl)-3-methylbutanoyl)-4-hydroxy-N-((S)-1-(4-(4-methylthiazol-5-yl)phenyl)ethyl)pyrrolidine-2-carboxamide] | > 0.03 µM |  | 
6 | Cc1ncsc1-c1ccc([C@H](C)NC(=O)[C@@H]2C[C@@H](O)CN2C(=O)[C@@H](NC(=O)CN2CCC(CN3CCC(OC4CC(Oc5cc(N6C7CC[C@@H]6CN(c6cc(-c8ccccc8O)nnc6N)C7)ccn5)C4)CC3)CC2)C(C)(C)C)cc1 (stereo partly drawn) [compound 512, (2S,4R)-1-((2S)-2-(2-(4-((4-((1r,3r)-3-((4-(3-(3-amino-6-(2-hydroxyphenyl)pyridazin-4-yl)-3,8-diazabicyclo[3.2.1]octan-8-yl)pyridin-2-yl)oxy)cyclobutoxy)piperidin-1-yl)methyl)piperidin-1-yl)acetamido)-3,3-dimethylbutanoyl)-4-hydroxy-N-((S)-1-(4-(4-methylthiazol-5-yl)phenyl)ethyl)pyrrolidine-2-carboxamide] | < 0.0025 µM |  | A (A > 75)
7 | Cc1cc([C@@H](C(=O)N2C[C@H](O)C[C@H]2C(=O)N[C@@H](C)c2ccc(-c3scnc3C)cc2)[C@H](C)COCCOc2cc(N3C4CCC3CN(c3cc(-c5ccccc5O)nnc3N)C4)ccn2)on1 [compound 513, (2S,4R)-1-((2S,3S)-4-(2-((4-(3-(3-amino-6-(2-hydroxyphenyl)pyridazin-4-yl)-3,8-diazabicyclo[3.2.1]octan-8-yl)pyridin-2-yl)oxy)ethoxy)-3-methyl-2-(3-methylisoxazol-5-yl)butanoyl)-4-hydroxy-N-((S)-1-(4-(4-methylthiazol-5-yl)phenyl)ethyl)pyrrolidine-2-carboxamide] | > 0.03 µM |  | 
8 | Cc1cc([C@H](C(=O)N2C[C@H](O)C[C@H]2C(=O)N[C@@H](C)c2ccc(-c3scnc3C)cc2)[C@H](C)COCCOc2cc(N3C4CCC3CN(c3cc(-c5ccccc5O)nnc3N)C4)ccn2)on1 [compound 514, (2S,4R)-1-((2R,3S)-4-(2-((4-(3-(3-amino-6-(2-hydroxyphenyl)pyridazin-4-yl)-3,8-diazabicyclo[3.2.1]octan-8-yl)pyridin-2-yl)oxy)ethoxy)-3-methyl-2-(3-methylisoxazol-5-yl)butanoyl)-4-hydroxy-N-((S)-1-(4-(4-methylthiazol-5-yl)phenyl)ethyl)pyrrolidine-2-carboxamide] | > 0.03 µM |  | 
9 | Cc1ncsc1-c1ccc([C@H](C)NC(=O)[C@@H]2C[C@@H](O)CN2C(=O)[C@@H](c2cc(OCCN3CCC(O[C@H]4C[C@H](Oc5cc(N6C7CCC6CN(c6ccnc8nc(-c9ccccc9O)cn68)C7)ccn5)C4)CC3)no2)C(C)C)cc1 [compound 515] | > 0.03 µM |  | 
10 | Cc1ncsc1-c1ccc([C@H](C)NC(=O)[C@@H]2C[C@@H](O)CN2C(=O)[C@@H](c2cc(OCCN3CCC(O[C@H]4C[C@H](Oc5cc(N6C7CCC6CN(c6cc(N)nc8nc(-c9ccccc9O)cn68)C7)ccn5)C4)CC3)no2)C(C)C)cc1 [compound 516] | > 0.03 µM |  | 
11 | Cc1ncsc1-c1ccc([C@H](C)NC(=O)[C@@H]2C[C@@H](OP(=O)(O)O)CN2C(=O)[C@@H](c2cc(OCCN3CCC(O[C@H]4C[C@H](Oc5cc(N6C7CCC6CN(c6cc(-c8ccccc8OP(=O)(O)O)nnc6N)C7)ccn5)C4)CC3)no2)C(C)C)cc1 [compound 517, (3R,5S)-1-((2R)-2-(3-(2-(4-((1r,3R)-3-((4-(3-(3-amino-6-(2-(phosphonooxy)phenyl)pyridazin-4-yl)-3,8-diazabicyclo[3.2.1]octan-8-yl)pyridin-2-yl)oxy)cyclobutoxy)piperidin-1-yl)ethoxy)isoxazol-5-yl)-3-methylbutanoyl)-5-(((S)-1-(4-(4-methylthiazol-5-yl)phenyl)ethyl)carbamoyl)pyrrolidin-3-yl dihydrogen phosphate] | < 0.0025 µM | > 75% | 
12 | Cc1ncsc1-c1ccc([C@H](C)NC(=O)[C@@H]2C[C@@H](O)CN2C(=O)[C@H](c2cc(N3CC(CN4CC(COc5cc(N6C7CCC6CN(c6cc(-c8ccccc8O)nnc6N)C7)ccn5)C4)C3)no2)C(C)C)cc1 [compound 518, (2S,4R)-1-((2S)-2-(3-(3-((3-(((4-(3-(3-amino-6-(2-hydroxyphenyl)pyridazin-4-yl)-3,8-diazabicyclo[3.2.1]octan-8-yl)pyridin-2-yl)oxy)methyl)azetidin-1-yl)methyl)azetidin-1-yl)isoxazol-5-yl)-3-methylbutanoyl)-4-hydroxy-N-((S)-1-(4-(4-methylthiazol-5-yl)phenyl)ethyl)pyrrolidine-2-carboxamide] | > 0.03 µM |  | 
13 | Cc1ncsc1-c1ccc([C@H](C)NC(=O)[C@@H]2C[C@@H](O)CN2C(=O)[C@@H](c2cc(N3CC(CN4CC(COc5cc(N6C7CCC6CN(c6cc(-c8ccccc8O)nnc6N)C7)ccn5)C4)C3)no2)C(C)C)cc1 [compound 519, (2S,4R)-1-((2R)-2-(3-(3-((3-(((4-(3-(3-amino-6-(2-hydroxyphenyl)pyridazin-4-yl)-3,8-diazabicyclo[3.2.1]octan-8-yl)pyridin-2-yl)oxy)methyl)azetidin-1-yl)methyl)azetidin-1-yl)isoxazol-5-yl)-3-methylbutanoyl)-4-hydroxy-N-((S)-1-(4-(4-methylthiazol-5-yl)phenyl)ethyl)pyrrolidine-2-carboxamide] | > 0.03 µM |  | 
14 | Cc1ncsc1-c1ccc([C@H](C)NC(=O)[C@@H]2C[C@@H](O)CN2C(=O)[C@@H](NC(=O)CN2CCC(OC3CC(Oc4cc(N5C6CC[C@@H]5CN(c5cc(-c7ccccc7O)nnc5N)C6)ccn4)C3)CC2)C(C)(C)C)cc1 (stereo partly drawn) [compound 520, (2S,4R)-1-((2S)-2-(2-(4-((1r,3S)-3-((4-(3-(3-amino-6-(2-hydroxyphenyl)pyridazin-4-yl)-3,8-diazabicyclo[3.2.1]octan-8-yl)pyridin-2-yl)oxy)cyclobutoxy)pipcridin-1-yl)acetamido)-3,3-dimethylbutanoyl)-4-hydroxy-N-((S)-1-(4-(4-methylthiazol-5-yl)phenyl)ethyl)pyrrolidine-2-carboxamide] | < 0.0025 µM |  | A (A > 75)
